Our source for the IC50 and selectivity ratio values is ChEMBL document CHEMBL2311460, “Synthesis and antiplasmodial activity of some 1-azabenzanthrone derivatives” (Bioorg Med Chem Lett, 2013).

The test system of data set [1] is MRC5. In words: Cytotoxicity against human MRC5 cells. It is filed as cell-based.
The test system of data set [2] is Plasmodium falciparum. In words: Antiplasmodial activity against chloroquine-resistant Plasmodium falciparum FCR-3 infected in human A positive erythrocytes by [3H]-hypoxanthine incorporation assay. In kind it is functional, organism-based. As to conditions: FCR-3/Gambia.
The nature of data set [3]: Selectivity index, ratio of IC50 for human MRC5 cells to IC50 for chloroquine-resistant Plasmodium falciparum FCR-3. It is filed as toxicity, cell-based. As to conditions: read-out: Ratio IC50.

The structures appear in SMILES notation.

Broadly, the IC50 is the concentration that gives 50% inhibition. A higher IC50 goes with weaker potency in that assay. With `COc1cc2c3c(nccc3c1[N+](=O)[O-])-c1ccccc1C2=O`, the values for the IC50 in data set [1] and in data set [2] were 10.2 µM and 21 µM, respectively. Besides, in data set [3], the selectivity ratio is 0.49.

Take `COc1cc2c3c(nccc3c1N)-c1ccccc1C2=O`: the figures for the IC50 in data set [1] and in data set [2] were 37 µM and 100 µM, respectively. In data set [3], the selectivity ratio turned out to be 0.37.

For `COc1cc2c3c(c1)C(=O)c1ccccc1C3=NCC2`, the half-inhibitory concentration (IC50) in data set [1] was found to be 81.3 µM; in data set [2], 2.5 µM. Besides, the selectivity ratio in data set [3] was determined as 32.4.

As to `COc1cc2c3c(nccc3c1)-c1ccccc1C2=O`, the IC50 in data set [1] is more than 100 µM; in data set [2], 6.4 µM. For the same compound, in data set [3], the selectivity ratio is more than 15.6.

On to `COc1cc2ccnc3c2c(c1[N+](=O)[O-])C(=O)c1ccccc1-3`, for which the IC50 in data set [1] was found to be 80 µM; in data set [2], 56 µM. For the same compound, the selectivity ratio in data set [3] worked out at 1.42.

Consider `COc1cc2ccnc3c2c(c1O)C(=O)c1ccccc1-3`, for which the 50% inhibitory concentration (IC50) was 65.1 µM in data set [1] and 51 µM in data set [2]. In addition, the selectivity ratio in data set [3] worked out at 1.27.

`COc1cc2c3c(nccc3c1Br)-c1ccccc1C2=O`: the 50% inhibitory concentration (IC50) in data set [1] is more than 100 µM; in data set [2], 52 µM. Moreover, the selectivity ratio in data set [3] was more than 1.99.

For `COc1cc2ccnc3c2c(c1OC)C(=O)c1ccccc1-3`, the IC50 in data set [1] is 50.5 µM; in data set [2], 74 µM. In addition, in data set [3], the selectivity ratio came to 0.68.

In the case of `O=C1c2ccccc2-c2ncc(Br)c3cccc1c23`, the half-inhibitory concentration (IC50) in data set [1] was more than 100 µM; in data set [2] it was 260 µM. The selectivity ratio in data set [3] was more than 0.38.

With `COc1cc2c3c(ncc(Br)c3c1)-c1ccccc1C2=O`, the IC50 in data set [1] came out at 28.9 µM; in data set [2], 220 µM. The selectivity ratio in data set [3] was 0.13.

As for `O=C1c2ccccc2-c2nccc3cccc1c23`, the IC50 in data set [1] worked out at 41.6 µM; in data set [2], 230 µM. For the same compound, the selectivity ratio in data set [3] was determined as 0.18.

`COc1cc2ccnc3c2c(c1N)C(=O)c1ccccc1-3` [LAKSHMININE]: the IC50 was found to be 17.9 µM in data set [1] and 100 µM in data set [2]. In addition, the selectivity ratio in data set [3] was 0.18.
